Measured values taken from patent US12077503B2, “Substituted cyclic amides and their use as herbicides” (FMC CORPORATION, priority 2015, dated 2024).

What was measured:
Assay type in all cases: in vivo
[1] = test system: barnyardgrass (Echinochloa crus-galli); test: Test G Pre-Emergence Protocol; conditions: Echinochloa crus-galli, pre-emergence, 312 h, evaluated after 13 days; for pest or weed control at 15.625 g/ha: 15.625 g ai/ha, read-out: Barnyard grass damage rating (100=total damage to plant; 0=no damage to plant); for pest or weed control at 62.5 g/ha: 62.5 g ai/ha, 100=total damage to plant, 0=no damage to plant, read-out: plant damage rating, Barnyardgrass; for pest or weed control at 250 g/ha: 250 g ai/ha, read-out: Barnyardgrass damage rating (100=total damage to plant; 0=no damage to plant)
Method in brief: (§1)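 One day after sowing, pots are treated with a spray of test compound formulated in acetone/water 50:50 plus 0.5% Tween 20, giving 15.625, 62.5 or 250 g/ha. Evaluation on a 0–100 damage scale follows 13 days of glasshouse growth.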

corn (Zea mays) [2] = test: Test G Pre-Emergence Protocol; conditions: Zea mays, pre-emergence, 312 h, evaluated after 13 days; for plant injury at 15.625 g/ha: 15.625 g ai/ha; for plant injury at 15.625 g/ha / plant injury at 250 g/ha: read-out: Corn damage rating (100=total damage to plant; 0=no damage to plant); for plant injury at 62.5 g/ha: 62.5 g ai/ha, 100=total damage to plant, 0=no damage to plant, read-out: plant damage rating, Corn; for plant injury at 250 g/ha: 250 g ai/ha
Method in brief: as §1

[3] = test system: giant foxtail (Setaria faberi); test: Test G Pre-Emergence Protocol; conditions: Setaria faberi, pre-emergence, 312 h, evaluated after 13 days; for pest or weed control at 15.625 g/ha: 15.625 g ai/ha; for pest or weed control at 15.625 g/ha / pest or weed control at 250 g/ha: read-out: Foxtail, Giant damage rating (100=total damage to plant; 0=no damage to plant); for pest or weed control at 62.5 g/ha: 62.5 g ai/ha, 100=total damage to plant, 0=no damage to plant, read-out: plant damage rating, Foxtail, Giant; for pest or weed control at 250 g/ha: 250 g ai/ha
Method in brief: as §1

[4] = test system: ivy-leaved morning glory (Ipomoea hederacea); test: Test G Pre-Emergence Protocol; conditions: Ipomoea, pre-emergence, 312 h, evaluated after 13 days; for pest or weed control at 15.625 g/ha: 15.625 g ai/ha, read-out: Morning-glory, Ivy-leaved damage rating (100=total damage to plant; 0=no damage to plant); for pest or weed control at 62.5 g/ha: 62.5 g ai/ha, 100=total damage to plant, 0=no damage to plant, read-out: plant damage rating, Morningglory, Ivy-leaved; for pest or weed control at 250 g/ha: 250 g ai/ha, read-out: Morningglory, Ivy-leaved damage rating (100=total damage to plant; 0=no damage to plant)
Method in brief: as §1

[5] = test system: redroot pigweed (Amaranthus retroflexus); test: Test G Pre-Emergence Protocol; conditions: Amaranthus retroflexus, pre-emergence, 312 h, evaluated after 13 days; for pest or weed control at 15.625 g/ha: 15.625 g ai/ha; for pest or weed control at 15.625 g/ha / pest or weed control at 250 g/ha: read-out: Pigweed, Redroot damage rating (100=total damage to plant; 0=no damage to plant); for pest or weed control at 62.5 g/ha: 62.5 g ai/ha, 100=total damage to plant, 0=no damage to plant, read-out: plant damage rating, Pigweed, Redroot; for pest or weed control at 250 g/ha: 250 g ai/ha
Method in brief: as §1

[6] = test system: velvetleaf (Abutilon theophrasti); test: Test G Pre-Emergence Protocol; conditions: Abutilon theophrasti, pre-emergence, 312 h, evaluated after 13 days; for pest or weed control at 15.625 g/ha: 15.625 g ai/ha; for pest or weed control at 15.625 g/ha / pest or weed control at 250 g/ha: read-out: Velvetleaf damage rating (100=total damage to plant; 0=no damage to plant); for pest or weed control at 62.5 g/ha: 62.5 g ai/ha, 100=total damage to plant, 0=no damage to plant, read-out: plant damage rating, Velvetleaf; for pest or weed control at 250 g/ha: 250 g ai/ha
Method in brief: as §1

[7] = test system: barnyardgrass (Echinochloa crus-galli); test: Test G Post-Emergence Protocol; conditions: Echinochloa crus-galli, post-emergence, 312 h; for pest or weed control at 15.625 g/ha: 15.625 g ai/ha, evaluated after 13 days (100=total damage to plant; 0=no damage to plant), read-out: Barnyardgrass damage rating; for pest or weed control at 62.5 g/ha: 62.5 g ai/ha, read-out: Barnyardgrass damage rating (100=total damage to plant; 0=no damage to plant); for pest or weed control at 62.5 g/ha / pest or weed control at 250 g/ha: evaluated after 13 days; for pest or weed control at 250 g/ha: 250 g ai/ha, read-out: damage to plant, Barnyardgrass (100=total damage to plant; 0=no damage to plant)
Method in brief: (§2)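 Sow in soil; grow 8 d (24/16 °C, 14 h light, 65% humidity); spray 15.625/62.5/250 g/ha in acetone:water 50:50 + 0.5% Tween 20; grow on, water twice daily; score damage 0–100 at 13 d.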

corn (Zea mays) [8] = test: Test G Post-Emergence Protocol; conditions: Zea mays, post-emergence, 312 h; for plant injury at 15.625 g/ha: 15.625 g ai/ha, evaluated after 13 days (100=total damage to plant; 0=no damage to plant), read-out: Corn damage rating; for plant injury at 62.5 g/ha: 62.5 g ai/ha, read-out: Corn damage rating (100=total damage to plant; 0=no damage to plant); for plant injury at 62.5 g/ha / plant injury at 250 g/ha: evaluated after 13 days; for plant injury at 250 g/ha: 250 g ai/ha, read-out: damage to plant, Corn (100=total damage to plant; 0=no damage to plant)
Method in brief: as §2

[9] = test system: giant foxtail (Setaria faberi); test: Test G Post-Emergence Protocol; conditions: Setaria faberi, post-emergence, 312 h; for pest or weed control at 15.625 g/ha: 15.625 g ai/ha, evaluated after 13 days (100=total damage to plant; 0=no damage to plant), read-out: Foxtail, Giant damage rating; for pest or weed control at 62.5 g/ha: 62.5 g ai/ha, read-out: Foxtail, Giant damage rating (100=total damage to plant; 0=no damage to plant); for pest or weed control at 62.5 g/ha / pest or weed control at 250 g/ha: evaluated after 13 days; for pest or weed control at 250 g/ha: 250 g ai/ha, read-out: damage to plant, Foxtail, Giant (100=total damage to plant; 0=no damage to plant)
Method in brief: as §2

[10] = test system: ivy-leaved morning glory (Ipomoea hederacea); test: Test G Post-Emergence Protocol; conditions: Ipomoea, post-emergence, 312 h; for pest or weed control at 15.625 g/ha: 15.625 g ai/ha, evaluated after 13 days (100=total damage to plant; 0=no damage to plant), read-out: Morningglory, Ivy-leaved damage rating; for pest or weed control at 62.5 g/ha: 62.5 g ai/ha, read-out: Morningglory, Ivy-leaved damage rating (100=total damage to plant; 0=no damage to plant); for pest or weed control at 62.5 g/ha / pest or weed control at 250 g/ha: evaluated after 13 days; for pest or weed control at 250 g/ha: 250 g ai/ha, read-out: damage to plant, Morningglory, Ivy-leaved (100=total damage to plant; 0=no damage to plant)
Method in brief: as §2

[11] = test system: redroot pigweed (Amaranthus retroflexus); test: Test G Post-Emergence Protocol; conditions: Amaranthus retroflexus, post-emergence, 312 h; for pest or weed control at 15.625 g/ha: 15.625 g ai/ha, evaluated after 13 days (100=total damage to plant; 0=no damage to plant), read-out: Pigweed, Redroot damage rating; for pest or weed control at 62.5 g/ha: 62.5 g ai/ha, read-out: Pigweed, Redroot damage rating (100=total damage to plant; 0=no damage to plant); for pest or weed control at 62.5 g/ha / pest or weed control at 250 g/ha: evaluated after 13 days; for pest or weed control at 250 g/ha: 250 g ai/ha, read-out: damage to plant, Pigweed, Redroot (100=total damage to plant; 0=no damage to plant)
Method in brief: as §2

[12] = test system: velvetleaf (Abutilon theophrasti); test: Test G Post-Emergence Protocol; conditions: Abutilon theophrasti, post-emergence, 312 h; for pest or weed control at 15.625 g/ha: 15.625 g ai/ha, evaluated after 13 days (100=total damage to plant; 0=no damage to plant), read-out: Velvetleaf damage rating; for pest or weed control at 62.5 g/ha: 62.5 g ai/ha, read-out: Velvetleaf damage rating (100=total damage to plant; 0=no damage to plant); for pest or weed control at 62.5 g/ha / pest or weed control at 250 g/ha: evaluated after 13 days; for pest or weed control at 250 g/ha: 250 g ai/ha, read-out: damage to plant, Velvetleaf (100=total damage to plant; 0=no damage to plant)
Method in brief: as §2

SMILES | pest or weed control at 15.625 g/ha [1] | pest or weed control at 62.5 g/ha [1] | pest or weed control at 250 g/ha [1] | plant injury at 15.625 g/ha (corn (Zea mays) [2]) | plant injury at 62.5 g/ha (corn (Zea mays) [2]) | plant injury at 250 g/ha (corn (Zea mays) [2]) | pest or weed control at 15.625 g/ha [3] | pest or weed control at 62.5 g/ha [3] | pest or weed control at 250 g/ha [3] | pest or weed control at 15.625 g/ha [4] | pest or weed control at 62.5 g/ha [4] | pest or weed control at 250 g/ha [4] | pest or weed control at 15.625 g/ha [5] | pest or weed control at 62.5 g/ha [5] | pest or weed control at 250 g/ha [5] | pest or weed control at 15.625 g/ha [6] | pest or weed control at 62.5 g/ha [6] | pest or weed control at 250 g/ha [6] | pest or weed control at 15.625 g/ha [7] | pest or weed control at 62.5 g/ha [7] | further results
CN1C[C@@H](c2ccc(C(F)(F)F)cc2)[C@H](C(=O)Nc2cc(F)c(F)c(F)c2F)C1=O (racemic) [Compound 1625] | 0% | 0% | 40% | 0% | 0% | 0% | 0% | 10% | 80% | 0% | 10% | 10% | 0% | 20% | 10% | 0% | 0% | 10% | 0% | 30% | pest or weed control at 250 g/ha [7]: 40%; plant injury at 15.625 g/ha (corn (Zea mays) [8]): 0%; plant injury at 62.5 g/ha (corn (Zea mays) [8]): 0%; plant injury at 250 g/ha (corn (Zea mays) [8]): 10%; pest or weed control at 15.625 g/ha [9]: 0%; pest or weed control at 62.5 g/ha [9]: 50%; pest or weed control at 250 g/ha [9]: 80%; pest or weed control at 15.625 g/ha [10]: 0%; pest or weed control at 62.5 g/ha [10]: 0%; pest or weed control at 250 g/ha [10]: 20%; pest or weed control at 15.625 g/ha [11]: 0%; pest or weed control at 62.5 g/ha [11]: 30%; pest or weed control at 250 g/ha [11]: 50%; pest or weed control at 15.625 g/ha [12]: 0%; pest or weed control at 62.5 g/ha [12]: 10%; pest or weed control at 250 g/ha [12]: 40%
CN1C[C@@H](c2ccc(C(F)(F)F)cc2)[C@H](C(=O)Nc2ccc(F)c(F)c2Cl)C1=O (racemic) [Compound 1627] | 0% | 40% | 80% | 0% | 10% | 70% | 70% | 80% | 80% | 0% | 0% | 10% | 0% | 50% | 60% | 0% | 20% | 20% | 20% | 70% | pest or weed control at 250 g/ha [7]: 80%; plant injury at 15.625 g/ha (corn (Zea mays) [8]): 0%; plant injury at 62.5 g/ha (corn (Zea mays) [8]): 30%; plant injury at 250 g/ha (corn (Zea mays) [8]): 70%; pest or weed control at 15.625 g/ha [9]: 70%; pest or weed control at 62.5 g/ha [9]: 80%; pest or weed control at 250 g/ha [9]: 80%; pest or weed control at 15.625 g/ha [10]: 60%; pest or weed control at 62.5 g/ha [10]: 70%; pest or weed control at 250 g/ha [10]: 70%; pest or weed control at 15.625 g/ha [11]: 20%; pest or weed control at 62.5 g/ha [11]: 60%; pest or weed control at 250 g/ha [11]: 70%; pest or weed control at 15.625 g/ha [12]: 0%; pest or weed control at 62.5 g/ha [12]: 20%; pest or weed control at 250 g/ha [12]: 40%
Cc1c(F)ccc(NC(=O)[C@@H]2C(=O)N(C)C[C@H]2c2ccc(C(F)(F)F)cc2)c1F (racemic) [Compound 1629] | 10% | 0% | 70% | 0% | 10% | 0% | 30% | 50% | 80% | 10% | 40% | 50% | 0% | 0% | 0% | 0% | 0% | 0% | 0% | 30% | pest or weed control at 250 g/ha [7]: 70%; plant injury at 15.625 g/ha (corn (Zea mays) [8]): 0%; plant injury at 62.5 g/ha (corn (Zea mays) [8]): 10%; plant injury at 250 g/ha (corn (Zea mays) [8]): 10%; pest or weed control at 15.625 g/ha [9]: 0%; pest or weed control at 62.5 g/ha [9]: 80%; pest or weed control at 250 g/ha [9]: 80%; pest or weed control at 15.625 g/ha [10]: 20%; pest or weed control at 62.5 g/ha [10]: 20%; pest or weed control at 250 g/ha [10]: 30%; pest or weed control at 15.625 g/ha [11]: 10%; pest or weed control at 62.5 g/ha [11]: 10%; pest or weed control at 250 g/ha [11]: 30%; pest or weed control at 15.625 g/ha [12]: 20%; pest or weed control at 62.5 g/ha [12]: 10%; pest or weed control at 250 g/ha [12]: 0%
